The nature of this data set: WST-8 cytotoxicity towards normal cell line PC12. The class given is cell-based, rat. The settings on record: rat, PC12 cells; WST-8 assay, six concentrations 1-100 μM; read-out: CC50 against PC12 cell line. The procedure: The evaluation of normal cell viability is fundamental in analyzing the efficacy of target compounds and is often used in conjunction with cytotoxicity tests to help understand how target compound toxicity affects normal cell health. […] A 100 μL aliquot of cells (10,000 cells/mL) was added to a 96 well plate and incubated for 24 h at 37 °C in a humidified incubator containing 5% CO2 in the air. […] Then, a 10 μL WST-8 solution (mixture of WST-8 and 1-methoxy PMS) was added to each well and the incubation continued for 3 h. The visible absorbance at 450 nm and 630 nm as the reference wavelength of each well was quantified using an MTP-310 absorbance microplate reader. Daunorubicin was used as a positive control. The results of cytotoxicity were recorded as growth inhibition percentages and as IC50 values.

For `COc1cc(/C(C)=N/O)ccc1OC(=O)c1cc(-c2ccc(C)cc2)n(-c2ccc(S(N)(=O)=O)cc2)n1` [Compound 8g, (E)–4–(1–(Hydroxyimino)ethyl)–2–methoxyphenyl 1–(4–sulfamoylphenyl)–5–p–tolyl–1H–pyrazole–3–carboxylate], the CC50 at 24 h is 16.1 µM.
For the compound `COc1cc(/C(C)=N/O)ccc1OC(=O)c1cc(-c2ccc(Cl)cc2)n(-c2ccc(S(N)(=O)=O)cc2)n1` [Compound 8i, (E)–4–(1–(Hydroxyimino)ethyl)–2–methoxyphenyl 5–(4–chlorophenyl)–1–(4–sulfamoyl phenyl)–1H–pyrazole–3–carboxylate], the CC50 at 24 h is greater than 100 µM.

The record behind these values is publication PMC10537604, “Development and Assessment of 1,5–Diarylpyrazole/Oxime Hybrids Targeting EGFR and JNK–2 as Antiproliferative Agents: A Comprehensive Study through Synthesis, Molecular Docking, and Evaluation” (Molecules, 2023).
